How the values were obtained:
[1] = system: MAO-B; conditions: read-out: MAO-B IC50; cited from earlier work
[2] = molecular target: A2AAR; conditions: read-out: A2AAR Ki; cited from earlier work
[3] = molecular target: T1, human recombinant MAO-B (Homo sapiens, UniProt P27338); assay: MAO-B enzyme assay; format: biochemical; conditions: Triton X-100, 0.01%; colloidal aggregation control
T1 sequence (P27338 1-520): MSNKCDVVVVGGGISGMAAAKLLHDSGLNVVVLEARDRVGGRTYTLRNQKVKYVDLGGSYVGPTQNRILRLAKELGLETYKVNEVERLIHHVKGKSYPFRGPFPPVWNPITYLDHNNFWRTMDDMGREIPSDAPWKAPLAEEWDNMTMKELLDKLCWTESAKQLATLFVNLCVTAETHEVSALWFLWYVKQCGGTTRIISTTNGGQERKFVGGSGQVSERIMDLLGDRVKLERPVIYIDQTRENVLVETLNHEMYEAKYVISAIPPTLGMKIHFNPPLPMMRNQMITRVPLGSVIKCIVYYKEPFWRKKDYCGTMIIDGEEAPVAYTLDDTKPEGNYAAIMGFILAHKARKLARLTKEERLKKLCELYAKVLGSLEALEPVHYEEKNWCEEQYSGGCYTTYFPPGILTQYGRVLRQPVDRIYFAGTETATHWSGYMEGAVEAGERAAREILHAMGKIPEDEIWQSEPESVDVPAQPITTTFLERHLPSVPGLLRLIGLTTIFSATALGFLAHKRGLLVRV

[4] = molecular target: A2A adenosine receptor (A2AAR) (Homo sapiens, UniProt P29274); assay: A2AAR competition binding; conditions: for better A2AAR binding affinity than compound 1: relative to compound 1
Chain of A2A adenosine receptor (A2AAR) (P29274 whole entry): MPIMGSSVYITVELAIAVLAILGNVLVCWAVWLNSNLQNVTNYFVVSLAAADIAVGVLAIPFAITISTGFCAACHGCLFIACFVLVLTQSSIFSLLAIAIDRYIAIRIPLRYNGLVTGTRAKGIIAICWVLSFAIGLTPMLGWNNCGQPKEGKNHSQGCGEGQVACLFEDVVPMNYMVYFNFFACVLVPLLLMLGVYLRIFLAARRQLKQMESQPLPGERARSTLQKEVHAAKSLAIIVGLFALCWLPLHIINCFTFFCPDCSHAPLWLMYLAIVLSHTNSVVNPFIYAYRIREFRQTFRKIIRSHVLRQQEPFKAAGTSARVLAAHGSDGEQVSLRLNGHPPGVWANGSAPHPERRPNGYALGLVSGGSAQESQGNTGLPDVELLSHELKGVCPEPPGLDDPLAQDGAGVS

[5] = molecular target: human A2A receptors (Homo sapiens, UniProt P29274); assay: Functional cAMP accumulation assay with NECA; format: cell-based; conditions: response to agonist NECA in presence of compound; CHO cells
Chain of human A2A receptors (P29274 whole entry): as above

[6] = system: differentiated dopaminergic neuronal-like SH-SY5Y cells; assay: Cell viability; format: cell-based, human; conditions: 20 µM 6-OHDA, 24 h; resazurin

## Cn1c(=O)c2c(nc(/C=C/c3cccc(Cl)c3)n2C)n(C)c1=O [CSC, 8-(3-chlorostyryl)caffeine]
[1]
  IC50: 18 nM
[2]
  Ki: 38 nM

## O=C(Nc1nc2ccccc2[nH]1)c1ccccc1 [Compound 1]
[3]
  change in MAO-B IC50 values in the presence of detergent: no significant changes

## O=C(Nc1nc2cccc(Cl)c2[nH]1)c1ccccc1 [Compound 1a]
[4]
  better A2AAR binding affinity than compound 1: 27 fold
[5]
  efficacy at the A2AAR in cAMP accumulation assay: antagonists

## COc1cccc2nc(NC(=O)c3ccccc3)[nH]c12 [Compound 1b]
[4]
  better A2AAR binding affinity than compound 1: 5 fold

## COc1cccc(COC(=O)c2nn(-c3ccccc3)nc2N)c1 [Compound 3]
[5]
  efficacy at the A2AAR in cAMP accumulation assay: antagonists

## Cc1ccc(COC(=O)c2nn(-c3ccccc3)nc2N)cc1 [Compound 3a]
[3]
  change in MAO-B IC50 values in the presence of detergent: no significant changes

## Nc1nn(-c2ccccc2)nc1C(=O)O [Compound 3j]
[4]
  activity at the A2AAR (in words): inactive

## COc1cccc(CO)c1 [Compound 3k]
[4]
  activity at the A2AAR (in words): inactive

## NCCc1cc(O)c(O)cc1O [Compound 6-OHDA, 6-hydroxydopamine]
[6]
  reduction in cell viability: 37 ± 1.3%

From article PMC6716773 (Journal of Medicinal Chemistry, 2018)
